Laboratory results: patent EP4818168A1, “FUSED RING COMPOUND, PHARMACEUTICAL COMPOSITION THEREOF AND USE THEREOF” (priority 2023, dated 2025)
Where two headings read alike, the source gives them in different places.

Tests used:
AURKA = biological target: T1, AURKA (Homo sapiens, UniProt O14965); assay type: cell-based
T1 construct: endogenous in cells; host or cells: Jurkat cells
T1 sequence (O14965 1-403): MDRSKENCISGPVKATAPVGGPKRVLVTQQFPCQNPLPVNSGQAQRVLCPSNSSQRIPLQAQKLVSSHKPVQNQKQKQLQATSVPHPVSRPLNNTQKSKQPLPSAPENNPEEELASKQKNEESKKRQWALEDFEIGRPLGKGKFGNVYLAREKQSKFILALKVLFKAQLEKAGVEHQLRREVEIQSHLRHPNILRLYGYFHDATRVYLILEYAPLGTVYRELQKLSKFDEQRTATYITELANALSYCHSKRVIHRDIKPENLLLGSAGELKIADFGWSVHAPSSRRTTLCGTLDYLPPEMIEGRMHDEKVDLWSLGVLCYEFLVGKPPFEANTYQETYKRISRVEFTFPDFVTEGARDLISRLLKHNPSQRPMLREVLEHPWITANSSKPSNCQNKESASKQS
Outline: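 Jurkat cells seeded at 1×10^6 cells/500 µL and treated with compound; lysates run on SDS-PAGE, blotted to nitrocellulose and probed overnight at 4°C for AURKA. Chemiluminescent or fluorescent band intensity fitted to a curve to give DC50 for protein degradation.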

H82 cells = experiment: cells; assay type: cell-based; settings: Homo sapiens
Outline: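 H82 cells in RPMI1640 + 10% FBS exposed to compound (0.1% DMSO final) for 6 days at 37 °C, 5% CO2. Viability read by CellTiter-Glo ATP luminescence, normalised to DMSO and medium controls; IC50 from nonlinear regression of the dose–survival curve.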

[1] = 100 nM compound, Jurkat cells, 24 h, Table 2
[2] = 1 µM compound, Jurkat cells, 24 h, Table 2
[3] = NCI-H82, read-out: IC50 in H82 Cells
[4] = NCI-H82, H82 cells, 4000 cells/well, CellTiter-Glo, read-out: IC50 in H82 Cells

SMILES | Percentage of AURKA Degradation Induced by 100 nM Compound in Jurkat Cells (AURKA; [1]) | Percentage of AURKA Degradation Induced by 1 µM Compound in Jurkat Cells (AURKA; [2]) | IC50 (H82 cells; [3]) | IC50 (H82 cells; [4]) | Percentage of AURKA Degradation Induced by 100 nM Compound in Jurkat Cells (AURKA) | Percentage of AURKA Degradation Induced by 1 µM Compound in Jurkat Cells (AURKA)
Cn1nc(N2CCC(=O)NC2=O)c2cccc(N3CCC4(CC3)CC(N3CCN(c5ccc(Nc6ncc7c(n6)-c6ccc(Cl)cc6C(c6c(F)cccc6F)=NC7)cc5)CC3)CO4)c21 (stereo not drawn) [Compound A364] | +++ (Degradation > 70%) | +++ (Degradation > 70%) | < 1 µM |  |  | 
O=C1CCN(c2cnc(N3CC(CN4CCN(c5ccc(Nc6ncc7c(n6)-c6ccc(Cl)cc6C(c6c(F)cccc6F)=NC7)cc5)C(=O)C4)C3)s2)C(=O)N1 [Compound A203] | ++ (30% < Degradation ≤ 70%) | +++ (Degradation > 70%) |  | < 1 µM |  | 
O=C1CCN(c2cccc(N3CCN(CC4CN(c5cccc(Nc6ncc7c(n6)-c6ccc(Cl)cc6C(c6c(F)cccc6F)=NC7)c5)C4)CC3)c2)C(=O)N1 [Compound A141] | +++ (Degradation > 70%) | +++ (Degradation > 70%) |  | < 1 µM |  | 
O=C1CCN(c2ccc(N3CCC(N4CCN(c5ccc(Nc6ncc7c(n6)-c6ccc(Cl)cc6C(c6c(F)cccc6F)=NC7)cc5)C5(CC5)C4)CC3)nc2)C(=O)N1 [Compound A217] | + (Degradation ≤ 30%) | + (Degradation ≤ 30%) |  | < 1 µM |  | 
O=C1CCN(c2ccc(N3CCOC(CN4CCN(C56CC(Nc7ncc8c(n7)-c7ccc(Cl)cc7C(c7c(F)cccc7F)=NC8)(C5)C6)C(=O)C4)C3)nc2)C(=O)N1 (stereo not drawn) [Compound A311] | +++ (Degradation > 70%) | +++ (Degradation > 70%) |  | < 1 µM |  | 
O=C1CCN(c2ccc(N3CC(O)(CN4CCN(c5ccc(Nc6ncc7c(n6)-c6ccc(Cl)cc6C(c6c(F)cccc6F)=NC7)cc5)C(=O)C4)C3)nc2)C(=O)N1 [Compound A299] |  |  | < 1 µM |  | +++ (key: +: Degradation ≤ 30%; ++: 30% < Degradation ≤ 70%; +++: Degradation > 70%) | +++ (key: +: Degradation ≤ 30%; ++: 30% < Degradation ≤ 70%; +++: Degradation > 70%)
N#Cc1ccc2c(c1)C(c1c(F)cccc1F)=NCc1cnc(Nc3ccc(N4CC(F)(CN5CCN(c6ccc(N7CCC(=O)NC7=O)cn6)CC5)C4)cc3)nc1-2 [Compound A319] | +++ (Degradation > 70%) | +++ (Degradation > 70%) |  | < 1 µM |  | 
O=C1CCN(c2ccc(N3CCN(CCCOc4cccc(Nc5ncc6c(n5)-c5ccc(Cl)cc5C(c5c(F)cccc5F)=NC6)c4)CC3)cc2)C(=O)N1 [Compound A102] | + (Degradation ≤ 30%) | + (Degradation ≤ 30%) |  | < 1 µM |  | 
CN(C)Cc1ccc2c(c1)C(c1c(F)cccc1F)=NCc1cnc(Nc3ccc(C(=O)NC4CC5(CCN(c6ccc(N7CCC(=O)NC7=O)cn6)CC5)C4)cc3)nc1-2 [Compound A172] | ++ (30% < Degradation ≤ 70%) | +++ (Degradation > 70%) |  | < 1 µM |  | 
O=C1CCN(c2ccc(N3CCN(C(=O)C4CCN(c5ccc(Nc6ncc7c(n6)-c6ccc(Cl)cc6C(c6c(F)cccc6F)=NC7)cc5)CC4)CC3)nc2)C(=O)N1 [Compound A277] | +++ (Degradation > 70%) | +++ (Degradation > 70%) |  | < 1 µM |  | 
O=C1CCN(c2cccc(N3CCN(CCc4cccc(Nc5ncc6c(n5)-c5ccc(Cl)cc5C(c5c(F)cccc5F)=NC6)c4)CC3)c2)C(=O)N1 [Compound A147] | +++ (Degradation > 70%) | +++ (Degradation > 70%) |  | < 1 µM |  | 
O=C1CCN(c2cncc(N3CCN(CC4CN(c5cccc(Nc6ncc7c(n6)-c6ccc(Cl)cc6C(c6c(F)cccc6F)=NC7)c5)C4)CC3)c2)C(=O)N1 [Compound A197] | +++ (Degradation > 70%) | +++ (Degradation > 70%) |  | < 1 µM |  | 
O=C1CCN(c2ccc(N3CCC4(CC3)CN(C3CCN(c5cccc(Nc6ncc7c(n6)-c6ccc(Cl)cc6C(c6c(F)cccc6F)=NC7)c5)CC3)CCO4)nc2)C(=O)N1 [Compound A347] |  |  | < 1 µM |  | +++ (key: +: Degradation ≤ 30%; ++: 30% < Degradation ≤ 70%; +++: Degradation > 70%) | +++ (key: +: Degradation ≤ 30%; ++: 30% < Degradation ≤ 70%; +++: Degradation > 70%)
O=C1CCN(c2ccc(NCCN3CCn4c(cnc4-c4ccc(Nc5ncc6c(n5)-c5ccc(Cl)cc5C(c5c(F)cccc5F)=NC6)cc4)C3)cc2)C(=O)N1 [Compound A107] | ++ (30% < Degradation ≤ 70%) | ++ (30% < Degradation ≤ 70%) |  | < 1 µM |  | 
O=C1CCN(c2ccc(N3CCC4(CC3)CN(CC3CN(c5ccc(Nc6ncc7c(n6)-c6ccc(Cl)cc6C(c6c(F)cccc6F)=NC7)cc5)C3)CCO4)nc2)C(=O)N1 [Compound A353] | +++ (Degradation > 70%) | +++ (Degradation > 70%) |  | < 1 µM |  | 
Cc1c(N2CCC(CN3Cc4ccc(Nc5ncc6c(n5)-c5ccc(Cl)cc5C(c5c(F)cccc5F)=NC6)cc4C3)CC2)cccc1N1CCC(=O)NC1=O [Compound A181] | +++ (Degradation > 70%) | +++ (Degradation > 70%) |  | < 1 µM |  | 
O=C1CCN(c2cccc(N3CCC(N4CC(c5cccc(Nc6ncc7c(n6)-c6ccc(Cl)cc6C(c6c(F)cccc6F)=NC7)c5)C4)CC3)c2)C(=O)N1 [Compound A151] | ++ (30% < Degradation ≤ 70%) | + (Degradation ≤ 30%) |  | < 1 µM |  | 
O=C1CCN(c2ccc(N3CCN(C(=O)[C@H]4CN(c5ccc(Nc6ncc7c(n6)-c6ccc(Cl)cc6C(c6c(F)cccc6F)=NC7)cc5)CCO4)CC3)nc2)C(=O)N1 [Compound A325] | +++ (Degradation > 70%) | +++ (Degradation > 70%) |  | < 1 µM |  | 
O=C1CCN(c2cccc(N3CCN(CCOc4cccc(Nc5ncc6c(n5)-c5ccc(C7CC7)cc5C(c5c(F)cccc5F)=NC6)c4)CC3)c2)C(=O)N1 [Compound A148] | +++ (Degradation > 70%) | +++ (Degradation > 70%) |  | < 1 µM |  | 
O=C1CCN(c2ccc(N3CCN(CCN4Cc5cc(Nc6ncc7c(n6)-c6ccc(Cl)cc6C(c6c(F)cccc6F)=NC7)ccc5C4=O)CC3)cc2)C(=O)N1 [Compound A158] | ++ (30% < Degradation ≤ 70%) | + (Degradation ≤ 30%) |  | < 1 µM |  | 
O=C1CCN(c2ccc(N3CCC(N4CCC(c5ccc(Nc6ncc7c(n6)-c6ccc(Cl)cc6C(c6c(F)cccc6F)=NC7)cc5)C(F)(F)C4)CC3)nc2)C(=O)N1 (stereo not drawn) [Compound A350] | +++ (Degradation > 70%) | +++ (Degradation > 70%) | < 1 µM |  |  | 
O=C1CCN(c2ccc(N3CCC(C(=O)N4CCN(C56CC(Nc7ncc8c(n7)-c7ccc(Cl)cc7C(c7nccs7)=NC8)(C5)C6)C(=O)C4)CC3)nc2)C(=O)N1 [Compound A280] | +++ (Degradation > 70%) | +++ (Degradation > 70%) |  | < 1 µM |  | 
